In patent US20130136740A1, “METHODS OF TREATING CANCER” (priority 2011, published 2013):

Assay: Serum phosphate in rats
Assay type: in vivo, Sprague Dawley rats
Details: daily dosing 50 mg/kg/day oral gavage, at 24 hour or 1 week
Method: FGFR1-ECD.339-Fc binds to the mitogenic FGFs with 10 to 100-fold higher affinity than to FGF-23. […] The potential biological impact of this relatively weak FGFR1-ECD.339-Fc/FGF-23 binding was investigated in rats following four weekly doses of FGFR1-ECD.339-Fc at a dose range of 10-200 mg/kg/qwk.
In the first experiment, Sprague Dawley rats (Charles River Labs; N=5/group) were dosed with vehicle, 10, 50 or 200 mg/kg/qwk of FGFR1-ECD.339-Fc for four weekly doses and plasma concentrations of FGFR1-ECD.339-Fc were determined throughout the study by an ELISA based detection method.
In the second experiment, Sprague Dawley rats (Charles River Labs; N=5/group) were administered the FGFR kinase inhibitor PD173074 (Chemdea, Ridgewood, N.J.; 50 mg/kg/day) or vehicle control by oral gavage for 7 days; or were administered FGFR1-ECD.339-Fc (200 mg/kg) or appropriate vehicle weekly by intravenous administration. Blood samples were collected at the time points indicated and serum phosphate was determined at 24 and 168 hours post-initiation of dosing (Idexx laboratories, Westbrook, Mass.).

plasma phosphate levels: significantly elevated
SMILES: CCN(CC)CCCCNc1ncc2cc(-c3cc(OC)cc(OC)c3)c(NC(=O)NC(C)(C)C)nc2n1 [PD173043, reference compound]
